Measurements reported in patent US8969020B2, “Peptide sequence that promotes tumor invasion” (MetaMol Theranostics LLC, priority 2005, dated 2015).

Tests used:
Assay type in all cases: cell-based, human
MCF-7 cells [1] = test: Soft agar colony formation by MCF-7 cells with synthetic peptide added; conditions: after ten days, peptide replenished with every addition of medium
Method: To assess effect on soft agar colony formation, 5×10^5 MCF-7 cells per 60-mm dish were plated in triplicates with a top layer of 0.3% agar (BACTO Agar, Difco, Detroit Mich.) and a bottom layer of 0.5% agar (both in a-MEM). Peptide SEQ ID NO: 37 was added at the indicated concentrations upon plating and was replenished with every addition of medium. Every other day, 0.4 ml of medium was supplemented. After ten days, photographs were taken at high and low magnification and the surface area of all clones in five fields was measured with the imaging software ImageJ (NIH) or Metamorph.
(§1) 5×10^5 MCF-7 cells per 60-mm dish were plated in triplicates with a top layer of 0.3% agar (BACTO Agar, Difco, Detroit, Mich.) and a bottom layer of 0.5% agar (both in α-MEM). Peptide was added at the indicated concentrations upon plating and was replenished with every addition of medium. For the investigation of cell growth rates, MCF-7 cells were plated at 5000 cells/well in 24-well plates in the presence or absence of peptide. Effects of a synthetic peptide on MDA-MB-435 cells are shown in FIG. 9C after 10 days in the presence or absence of synthetic peptides. hOPN Exon-5 peptide (NAVSSEETNDFKQE) SEQ ID NO: 34 and scrambled hOPN-c peptide (SSEEQETGVEKASSNS) SEQ ID NO: 33 served as non-specific controls.

MCF-7 cells [2] = test: Adhesion of MCF-7 cells to coated wells; conditions: 2 hours at 37° C., 96-well plate coated overnight
Method: 96-well polystyrene plates were coated with the indicated amounts of GST-OPN forms or control fibronectin ([…]) in […] at 4° C. overnight. The wells were washed twice with cold PBS followed by blocking with 1% BSA for 1 h at 37° C. MCF-7 parental cells were used to assay adhesion. Cells were trypsinized and treated with soybean trypsin inhibitor, then washed twice with PBS and resuspended in adhesion buffer (0.1% BSA, 1 mM sodium pyruvate, 2 mM MgCl2). Cells (2×10^4 cell/well) were added to the above 96-well plates and allowed to adhere at 37° C. for two hours. Non-adherent cells were removed by rinsing twice with PBS. Adherent cells were counted and photographed. For adhesion to aggregated OPN, 1 μg of GST or GST-OPN forms were added to 96-well plated in aggregation buffer (0.2 M NaCl, 0.05 M Tris-HCl, pH 7.6, 5 mM CaCl2 final concentration) and incubated at 4° C. overnight. All adhesion assays were performed with triplicate wells and were repeated at least three times.
Stably transfected cells were plated at 5000 cells/well (24-well plate) on day 0. On every consecutive day, five wells per cell line were harvested and the total number of cells was counted. […] Aggregation was assessed after 16 hours at increasing calcium concentrations. Consecutively denaturing, non-reducing SDS-PAGE and Western blotting for OPN was performed. […]

MCF-7 cells [3] = test: Cell growth rate of MCF-7 cells in 24-well plates with or without peptide; conditions: 5000 cells/well, daily cell counts
Method: Two control peptides (hOPN-c scrambled sequence SEQ ID NO: 33 and hOPN-exon5 SEQ ID NO: 34) had no effect (data not shown). […] For investigation of cell growth rates, MCF-7 cells were plated at 5000 cells/well in 24-well plates in the presence or absence of peptide. Daily, five wells per group were harvested by trypsinization and the cell numbers were determined in a Coulter™ Z-Series Counter.
as §1

## NAVSSEETNDFKQE (Control peptide derived from Exon 5) [SEQ ID NO: 34, hOPN Exon-5 peptide, non-specific control, reference compound]
MCF-7 cells [1]
  size of the clones formed in soft agar: no effect

## fibronectin
MCF-7 cells [2]
  cell spreading of adhered cells on coated plastic: cell spreading

## SSEEQETGVEKASSNS (Control peptide for OPNcPEP) [SEQ ID NO: 33, scrambled hOPN-c peptide, non-specific control, reference compound]
MCF-7 cells [1]
  size of the clones formed in soft agar: no effect

## Ac-SGSSEEKQNAVSSEET-NH2 [SEQ ID NO: 37]
MCF-7 cells [3]
  cell growth: no effect on cell growth
MCF-7 cells [1]
  size of the clones formed in soft agar: increasing the size of the clones formed in soft agar

## SGSSEEKQNAVSSEET (Peptide representing a domain encompassing the splice junction of Exon 3 and 5) [SEQ ID NO: 8, OPNc peptide, domain around the splice junction of OPN variant-c]
MCF-7 cells [3]
  cell growth: did not support the growth of cells in plastic dishes
MCF-7 cells [1]
  size of the clones formed in soft agar: enhanced soft agar clone formation
